Assay results published in article PMC9295122, “Sialic Acid Derivatives Inhibit SiaT Transporters and Delay Bacterial Growth” (ACS Chemical Biology, 2022).

Key:
[1] = Plasma-protein binding by RED, mouse; type: in vitro ADME; conditions: pH 7.2, read-out: Plasma-protein binding by RED (% unbound compound, average n=2)
Description: (§1) The assay was run in a deep well plate containing RED inserts with semipermeable dialysis membranes. The reaction was started by adding the compounds to a blank plasma in a 5 μM concentration. Opposite to the blank plasma was a compartment containing isotonic sodium–phosphate buffer (pH 7.2) separated from the plasma by the membrane. The plate was equilibrated in a water bath at 37 °C for 4 h. Samples from both the plasma and the buffer side were matrix compensated before protein precipitation. The samples were centrifuged, and the supernatants were diluted and analyzed by LC–MS/MS to determine the % unbound compound. Two incubations per compound per species.

[2] = Plasma-protein binding by RED, human; type: in vitro ADME; conditions: pH 7.2, read-out: Plasma-protein binding by RED (% unbound compound, average n=2)
Description: as §1

[3] = Metabolic stability in mouse liver microsomes; type: in vitro ADME; conditions: for Metabolic stability in mouse microsomes, Exp. 1 / Metabolic stability in mouse microsomes, Exp. 2: intrinsic clearance, 1 µM compound; for microsomal CLint at 1 µM: mouse liver microsomes, read-out: intrinsic clearance Clint
Description: The assay was run in a 96-deep well format and solutions were prepared containing microsomes in phosphate buffer. The microsomes employed were from humans, rats, and mice. The reaction was initiated by addition of NADPH after preincubation at 37 °C with test compounds. The reaction was stopped by the addition of acetonitrile (ACN) at six time points (0, 5, 10, 15, 25, and 45 min), the samples were centrifuged, and the supernatant was diluted to determine the loss of compound by LC–MS/MS. Two incubations per compound per species. For further details regarding working concentrations, volumes, and final concentrations at incubation, refer to the supplementary section (Table S6). […]
Conc. of W orki ng Vol ume i n Fi nal conc. At
sol uti on assay incubation
577 m g / m L520 µ L0. 5 m g / m L […]
NADPH i n buffe r 7. 5 m M 80 µ L 1 m M

Plasma stability, dog = type: in vitro ADME; conditions: 1 μM, 37 °C
Description: (§2) The reaction was started by the addition of the compound to blank plasma in LC vials after preincubation at 37 °C. The initial compound concentration was 1 μM. The reaction was stopped by the addition of ACN at seven time points (0, 0.5, 1, 2, 4, 6, and 23 h). Time point 0 h was about 15–20 s after spiking the plasma with the compound. The samples were centrifuged and the supernatant diluted and analyzed by LC–MS/MS to determine the % of compound remaining relative to the initial concentration of compound.

Plasma stability, rat = type: in vitro ADME; conditions: 1 μM, 37 °C
Description: as §2

SiaT from P. mirabilis = target: T1, SiaT from P. mirabilis (Proteus mirabilis, UniProt B4EZY7); experiment: biochemical; type: biochemical; conditions: for type of inhibition: PmSiaT, Lineweaver–Burk plot; for Ki: proteoliposome assay, Lineweaver–Burk, read-out: PmSiaT Ki
T1 construct: made in house
Description: To gain further insights into the molecular mechanisms, we investigated the direct effects of compounds 3e and 3f on the transport activity in proteoliposomes reconstituted with PmSiaT and SaSiaT. A kinetic analysis was performed by measuring the concentration-dependent uptake of [^3H]Neu5Ac in the presence of two different concentrations of the inhibitors 3f (Figure 5a,c) or 3e (Figure 5b,d).
Figure 5 Kinetic analysis of the inhibition of recombinant SiaT from P. mirabilis (A,B) and S. aureus (C,D) reconstituted in proteoliposomes and [^3H]Neu5Ac efflux in proteoliposomes (E,F). (a–d) Data were plotted according to Lineweaver–Burk as a reciprocal transport rate vs reciprocal Neu5Ac concentration. The transport rate was measured, in 5 min, by adding [^3H] Neu5Ac at the indicated concentrations to proteoliposomes containing 20 mM K^+-gluconate in the presence of valinomycin as described in the Supporting Information. [(A,B) P. mirabilis SiaT]; (A) compound 3f 0.25 μM (●) or 0.75 μM (□) was added in comparison to samples without inhibitor (○). (B) Compound 3e 12 μM (●) or 40 μM (□) was added in comparison to samples without an inhibitor (○). [(C,D) S. aureus SiaT]. (C) Compound 3f 80 μM (●) or 200 μM (□) was added in comparison to samples without an inhibitor (○). (D) Compound 3e 5 μM (●) or 12 μM (□) was added in comparison to samples without an inhibitor (○). Results are mean ± s.d. from four independent experiments (n = 4). […] Data are calculated as the percent of residual activity with respect to the control sample (efflux time zero). The results are the means ± s.d. of three independent experiments.
The purified SiaT from P. mirabilis and S. aureus was reconstituted by using the detergent removal procedure with the batchwise method previously pointed out.[16],[21] In brief, 2.5 μg or 5 μg of P. mirabilis and S. aureus SiaT, respectively, were mixed with 120 μL 10% C12E8, 100 μL of 10% egg yolk phospholipids (w/v, in the form of sonicated liposomes as previously described),[43] 20 mM of K^+-gluconate, and 20 mM Hepes Tris pH 7.0 in a final volume of 700 μL. The reconstitution mixture was incubated with 0.5 g Amberlite XAD-4 resin under rotatory stirring (1200 rpm) at 25 °C for 40 min.[44] The amount of reconstituted protein was estimated as previously described.[16]
For uptake experiments, 600 μL of proteoliposomes were loaded onto a Sephadex G-75 column (0.7 cm diameter × 15 cm height), pre-equilibrated with 20 mM Hepes Tris pH 7.0 with 40 mM sucrose to balance the internal osmolarity. Then, valinomycin (0.75 μg/mg phospholipid), prepared in ethanol, was added to the eluted proteoliposomes to generate a K^+ diffusion potential, as previously described. After 10 s of incubation with valinomycin, the transport was started by adding different concentrations of [^3H]-Neu5Ac (as indicated in the figures) to 100 μL proteoliposomes in the presence of 10 mM NaCl for P. mirabilis and 50 mM NaCl for S. aureus. For kinetic measurement, the initial transport rate was measured by stopping the reaction after 5 min, that is, within the initial linear range of [^3H]-Neu5Ac uptake into the proteoliposomes previously described. For efflux measurements, proteoliposomes were preloaded by incubation with [^3H]-Neu5Ac (as indicated in the figures) in the presence of 10 mM NaCl for P. mirabilis and 50 mM NaCl for S. aureus for 20 min. Efflux was started by adding 0.1 mM Neu5Ac or inhibitors to the preloaded proteoliposomes. In both uptake and efflux experiments, the transport assay was terminated by loading each proteoliposome sample (100 μL) on a Sephadex G-75 column (0.6 cm diameter × 8 cm height) to remove the external radioactivity. Proteoliposomes were eluted with 1 mL of 50 mM NaCl and collected in a 4 mL of scintillation mixture, vortexed and counted.

[4] = Neu5Ac transport by PmSiaT in proteoliposomes

T1 sequence (B4EZY7 whole entry): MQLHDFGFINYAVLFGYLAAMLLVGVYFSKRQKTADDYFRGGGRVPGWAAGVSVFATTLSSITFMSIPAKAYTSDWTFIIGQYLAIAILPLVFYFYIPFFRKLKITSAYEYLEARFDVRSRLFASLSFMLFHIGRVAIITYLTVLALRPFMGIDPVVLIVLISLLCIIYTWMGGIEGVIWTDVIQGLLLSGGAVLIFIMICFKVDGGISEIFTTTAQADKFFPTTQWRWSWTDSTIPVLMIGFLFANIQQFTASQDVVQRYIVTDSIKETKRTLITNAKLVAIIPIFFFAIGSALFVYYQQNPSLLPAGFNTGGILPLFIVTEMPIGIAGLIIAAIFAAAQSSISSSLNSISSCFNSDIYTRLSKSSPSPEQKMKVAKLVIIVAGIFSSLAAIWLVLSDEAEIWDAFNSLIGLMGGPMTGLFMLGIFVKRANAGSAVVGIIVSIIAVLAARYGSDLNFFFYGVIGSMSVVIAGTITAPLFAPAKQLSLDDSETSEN

## CC(=O)NC1C(OCc2ccccc2)CC(O)(C(=O)O)OC1C(O)C(O)CO (stereo not drawn) [Compound 3a]
[1]
  fraction unbound at 4 h, 5 μM: 0.63
[2]
  fraction unbound at 4 h, 5 μM: 0.85
[3]
  Metabolic stability in mouse microsomes, Exp. 1: < 10 µL/min/mg protein
  Metabolic stability in mouse microsomes, Exp. 2: < 10 µL/min/mg protein
  microsomal CLint at 1 µM: < 10 µL/min/mg
Plasma stability, dog
  In vitro plasma stability (% compound remaining after 23 h): 100%
Plasma stability, rat
  In vitro plasma stability (% compound remaining after 23 h): 100%

## CC(=O)NC1C(OCc2cc(F)cc(F)c2)CC(O)(C(=O)O)OC1C(O)C(O)CO (stereo not drawn) [Compound 3e]
[1]
  fraction unbound at 4 h, 5 μM: 0.63
[2]
  fraction unbound at 4 h, 5 μM: 0.74
SiaT from P. mirabilis
  type of inhibition: competitive inhibitors
  Ki: 9.9 ± 2.6 µM
[3]
  Metabolic stability in mouse microsomes, Exp. 1: < 10 µL/min/mg protein
  Metabolic stability in mouse microsomes, Exp. 2: < 10 µL/min/mg protein
  microsomal CLint at 1 µM: < 10 µL/min/mg
Plasma stability, dog
  In vitro plasma stability (% compound remaining after 23 h): 100%
Plasma stability, rat
  In vitro plasma stability (% compound remaining after 23 h): 100%

## CC(=O)NC1C(OCc2cc(Br)cc(Br)c2)CC(O)(C(=O)O)OC1C(O)C(O)CO (stereo not drawn) [Compound 3f]
[1]
  fraction unbound at 4 h, 5 μM: 0.23
[2]
  fraction unbound at 4 h, 5 μM: 0.27
SiaT from P. mirabilis
  type of inhibition: competitive inhibitors
  Ki: 0.13 ± 0.04 µM
[3]
  Metabolic stability in mouse microsomes, Exp. 1: < 10 µL/min/mg protein
  Metabolic stability in mouse microsomes, Exp. 2: < 10 µL/min/mg protein
  microsomal CLint at 1 µM: < 10 µL/min/mg
Plasma stability, dog
  In vitro plasma stability (% compound remaining after 23 h): 81%
Plasma stability, rat
  In vitro plasma stability (% compound remaining after 23 h): 100%

## CC(=O)N[C@H]1[C@H]([C@H](O)[C@H](O)CO)OC(O)(C(=O)O)C[C@@H]1O (stereo partly drawn) [Neu5Ac, 5-N-acetyl neuraminic acid, reference compound]
SiaT from P. mirabilis; [4]
  Km: 7.5 ± 1.6 µM
  Vmax: 180 ± 56 nmol/mg protein/min
